Target: rat nNOS (Rattus norvegicus, UniProt P29476)
Conditions: for potency with nNOS relative to 1: amine in the chain replaced with ether or amide

potency with nNOS relative to 1	loss of binding affinity relative to 1 (nNOS, amine replaced with amide)	Structure (SMILES)
significant loss in potency		Cc1cc(N)nc(CC2CNCC2OCCNC(=O)Cc2cccc(F)c2)c1 (stereo not drawn) [compound 6, N-(2-(4-((6-Amino-4-methylpyridin-2-yl)-methyl)pyrrolidin-3-yloxy)ethyl)-2-(3-fluorophenyl)acetamide]
significant loss in potency		Cc1cc(N)nc(CC2CNCC2NCCOCCc2cccc(F)c2)c1 (stereo not drawn) [compound 4, 6-((4-(2-(3-Fluorophenethoxy)ethylamino)pyrrolidin-3-yl)methyl)-4-methyl-pyridin-2-amine]
	3-4 fold	Cc1cc(N)nc(CC2CNCC2NC(=O)CNCCc2cccc(F)c2)c1 (stereo not drawn) [compound 3, N-(4-((6-Amino-4-methylpyridin-2-yl)-methyl)-pyrrolidin-3-yl)-2-(3-fluorophenethylamino)-acetamide]

— publication PMC2775099 (Bioorganic & medicinal chemistry, 2009)
